Measurements reported in ChEMBL document CHEMBL1759966, “Design and optimisation of orally active TLR7 agonists for the treatment of hepatitis C virus infection” (Bioorg Med Chem Lett, 2011).

Tests used:
[1] = Lipophilicity, log D of the compound; assay type: physicochemical; settings: octanol/water
[2] = Half life in rat cytosol; assay type: ADME

SMILES	logD [1]	half-life [2] [h]
Nc1nc(C(F)(F)F)cc2c1[nH]c(=O)n2CC1CCCOC1 (centres undefined)	2	–
Cc1ccc(Cn2c(=O)[nH]c3c(N)nc(-n4nccn4)cc32)cn1	1.6	–
Cc1cc(Cn2c(=O)[nH]c3c(N)nc(C(F)(F)F)cc32)no1	2.1	> 16.7
COCCCOc1cc2c([nH]c(=O)n2Cc2ccc(C)nc2)c(N)n1	1.8	–
COCCCn1c(=O)[nH]c2c(N)nc(C(F)(F)F)cc21	1.9	–
Cc1ccc(Cn2c(=O)[nH]c3c(N)nc(-c4nc(C)co4)cc32)cn1	2.1	> 16.7
Cc1ccc(Cn2c(=O)[nH]c3c(N)nc(C(F)(F)F)cc32)nc1	2.2	1.38
Cc1ncc(Cn2c(=O)[nH]c3c(N)nc(C(F)(F)F)cc32)cn1	1.6	–
Cc1cnc(Cn2c(=O)[nH]c3c(N)nc(C(F)(F)F)cc32)cn1	1.8	–
Cc1ccc(Cn2c(=O)[nH]c3c(N)nc(OCC4CCN(C)CC4)cc32)cn1	0.2	–
Cc1nc(Cn2c(=O)[nH]c3c(N)nc(C(F)(F)F)cc32)co1	1.7	> 16.7
Cc1ccc(Cn2c(=O)[nH]c3c(N)nc(OCC4CCOC4)cc32)cn1 (centres undefined)	1.8	–
Cc1nc(Cn2c(=O)[nH]c3c(N)nc(C(F)(F)F)cc32)cs1	2.3	> 16.7
Nc1nc(C(F)(F)F)cc2c1[nH]c(=O)n2Cc1ccccc1	3.3	–
